Test results reported in ChEMBL document CHEMBL1153951, “Partial regeneration of beta-cells in the islets of Langerhans by Nymphayol a sterol isolated from Nymphaea stellata (Willd.) flowers” (2009).
Active and inactive are the calls of the source. The calls are words filed in the database; no cut-off is given here.

How the values were obtained:
[1] = test system: Rattus norvegicus; assay: Antihyperglycemic activity in STZ-diabetic rat assessed as hyperplastic islet cells at 50 mg/kg, po after 45 days by histopathological study; assay type: functional, organism-based; design: dose 50 mg/kg
[2] = test system: Rattus norvegicus; assay: Antihyperglycemic activity in STZ-diabetic rat assessed as dilated islet cells at 25 mg/kg, po after 45 days by histopathological study; assay type: functional, organism-based; design: dose 25 mg/kg
[3] = test system: Rattus norvegicus; assay: Antihyperglycemic activity in STZ-diabetic rat assessed as dilated islet cells at 600 ug/kg, po after 45 days by histopathological study; assay type: functional, organism-based
[4] = test system: Rattus norvegicus; assay: Antihyperglycemic activity in STZ-diabetic rat assessed as potentiation of insulin secretion from existing beta cells at 50 mg/kg, po after 45 days; assay type: functional, organism-based; design: dose 50 mg/kg
[5] = test system: Rattus norvegicus; assay: Antihyperglycemic activity in po dosed STZ-diabetic rat assessed as lowering of fasting plasma glucose level after 45 days by colorimetry; assay type: functional
[6] = test system: Rattus norvegicus; assay: Antihyperglycemic activity in STZ-diabetic rat assessed as expansion of islet cells at 25 mg/kg, po after 45 days by histopathological study; assay type: functional, organism-based; design: dose 25 mg/kg
[7] = test system: Rattus norvegicus; assay: Antihyperglycemic activity in STZ-diabetic rat assessed as hyperplastic islet cells at 600 mg/kg, po after 45 days by histopathological study; assay type: functional, organism-based; design: dose 600 mg/kg
[8] = test system: Rattus norvegicus; assay: Antihyperglycemic activity in STZ-diabetic rat assessed as expansion of islet cells at 50 mg/kg, po after 45 days by histopathological study; assay type: functional, organism-based; design: dose 50 mg/kg
[9] = test system: Rattus norvegicus; assay: Antihyperglycemic activity in STZ-diabetic rat assessed as expansion of islet cells at 12.5 mg/kg, po after 45 days by histopathological study; assay type: functional, organism-based; design: dose 12.5 mg/kg
[10] = test system: Rattus norvegicus; assay: Antihyperglycemic activity in STZ-diabetic rat assessed as improvement in beta cell granulation at 50 mg/kg, po after 45 days by histopathological study; assay type: functional, organism-based; design: dose 50 mg/kg
[11] = test system: Rattus norvegicus; assay: Antihyperglycemic activity in po dosed STZ-diabetic rat assessed as insulin containing beta-cells by immunohistochemical study; assay type: functional, organism-based
[12] = test system: Rattus norvegicus; assay: Antihyperglycemic activity in STZ-diabetic rat assessed as dilated islet cells at 12.5 mg/kg, po after 45 days by histopathological study; assay type: functional, organism-based; design: dose 12.5 mg/kg

With `CCCC[C@@H](C)[C@H]1CC[C@H]2[C@@H]3CC=C4C[C@@H](O)CC[C@]4(C)[C@H]3CC[C@]12C` [NYMPHAYOL] the Activity [1] was “inactive”, the Activity [2] was “inactive” and the Activity [3] was “inactive”. The Activity [4] was “Active”, the Activity [5] was 78.05% and the Activity [6] was “inactive”. For the same compound, the Activity [7] was “inactive”, the Activity [8] was “inactive” and the Activity [9] was “Active”. The Activity [10] was “Active”, the Activity [11] was “Active” and the Activity [12] was “Active”.
